Measurements reported in ChEMBL document CHEMBL3882729, “Receptor-type kinase modulators and methods of use” (2009).

Tests used:
[1] = biological target: Vascular endothelial growth factor receptor 2 (Homo sapiens, UniProt P35968); assay: Inhibition of recombinant human N-terminal GST-fused KDR (D807 to V1356 residues) expressed in baculovirus infected […] insect Sf9 cells using poly-EY as substrate after 240 mins by luciferase coupled chemiluminescence assay
Ephrin type-B receptor 4 = biological target: T1, Ephrin type-B receptor 4 (Homo sapiens, UniProt P54760); assay: Inhibition of recombinant human N-terminal His6-tagged EphB4 kinase domain (E605 to E890 residues) expressed in baculovirus using poly-AEKY as substrate after 150 mins in presence of gamma33P-ATP by liquid scintillation spectrometry
T1 sequence (P54760 whole entry): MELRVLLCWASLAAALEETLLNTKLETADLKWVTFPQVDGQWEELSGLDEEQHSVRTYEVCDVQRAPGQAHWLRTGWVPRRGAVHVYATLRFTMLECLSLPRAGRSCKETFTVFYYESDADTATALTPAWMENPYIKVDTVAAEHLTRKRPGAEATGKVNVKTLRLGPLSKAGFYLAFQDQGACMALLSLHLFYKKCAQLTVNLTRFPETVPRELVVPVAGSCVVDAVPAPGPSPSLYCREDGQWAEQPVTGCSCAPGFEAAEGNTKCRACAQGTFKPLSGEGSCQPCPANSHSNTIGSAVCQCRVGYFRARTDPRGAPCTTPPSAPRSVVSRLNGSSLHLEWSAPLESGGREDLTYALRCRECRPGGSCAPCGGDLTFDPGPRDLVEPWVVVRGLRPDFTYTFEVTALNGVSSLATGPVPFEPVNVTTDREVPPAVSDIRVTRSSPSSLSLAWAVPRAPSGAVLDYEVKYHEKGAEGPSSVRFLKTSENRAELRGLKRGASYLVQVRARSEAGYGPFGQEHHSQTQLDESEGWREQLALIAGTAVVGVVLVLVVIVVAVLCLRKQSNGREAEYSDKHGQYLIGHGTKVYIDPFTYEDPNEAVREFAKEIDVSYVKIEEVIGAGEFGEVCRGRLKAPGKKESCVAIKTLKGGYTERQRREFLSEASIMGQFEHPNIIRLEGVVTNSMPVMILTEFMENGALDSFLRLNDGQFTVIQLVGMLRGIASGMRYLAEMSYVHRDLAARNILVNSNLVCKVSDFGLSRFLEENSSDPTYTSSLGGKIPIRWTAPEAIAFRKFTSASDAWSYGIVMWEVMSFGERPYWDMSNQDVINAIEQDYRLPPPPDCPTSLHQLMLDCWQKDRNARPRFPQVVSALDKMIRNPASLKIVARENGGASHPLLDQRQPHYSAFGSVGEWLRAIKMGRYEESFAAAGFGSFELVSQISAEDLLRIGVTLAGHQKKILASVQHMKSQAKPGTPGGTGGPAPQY

[2] = biological target: Receptor tyrosine-protein kinase erbB-2 (Homo sapiens, UniProt P04626); assay: Inhibition of recombinant human N-terminal GST His6-tagged thrombin cleavage site-fused ErbB2 kinase domain (Q679 to V1255 residues) expressed in baculovirus infected insect Sf9 cells using biotinylated poly-EY as substrate after 60 mins by alphascreen assay
Receptor tyrosine-protein kinase erbB-2, sequence (P04626 whole entry, the tested form may be a part): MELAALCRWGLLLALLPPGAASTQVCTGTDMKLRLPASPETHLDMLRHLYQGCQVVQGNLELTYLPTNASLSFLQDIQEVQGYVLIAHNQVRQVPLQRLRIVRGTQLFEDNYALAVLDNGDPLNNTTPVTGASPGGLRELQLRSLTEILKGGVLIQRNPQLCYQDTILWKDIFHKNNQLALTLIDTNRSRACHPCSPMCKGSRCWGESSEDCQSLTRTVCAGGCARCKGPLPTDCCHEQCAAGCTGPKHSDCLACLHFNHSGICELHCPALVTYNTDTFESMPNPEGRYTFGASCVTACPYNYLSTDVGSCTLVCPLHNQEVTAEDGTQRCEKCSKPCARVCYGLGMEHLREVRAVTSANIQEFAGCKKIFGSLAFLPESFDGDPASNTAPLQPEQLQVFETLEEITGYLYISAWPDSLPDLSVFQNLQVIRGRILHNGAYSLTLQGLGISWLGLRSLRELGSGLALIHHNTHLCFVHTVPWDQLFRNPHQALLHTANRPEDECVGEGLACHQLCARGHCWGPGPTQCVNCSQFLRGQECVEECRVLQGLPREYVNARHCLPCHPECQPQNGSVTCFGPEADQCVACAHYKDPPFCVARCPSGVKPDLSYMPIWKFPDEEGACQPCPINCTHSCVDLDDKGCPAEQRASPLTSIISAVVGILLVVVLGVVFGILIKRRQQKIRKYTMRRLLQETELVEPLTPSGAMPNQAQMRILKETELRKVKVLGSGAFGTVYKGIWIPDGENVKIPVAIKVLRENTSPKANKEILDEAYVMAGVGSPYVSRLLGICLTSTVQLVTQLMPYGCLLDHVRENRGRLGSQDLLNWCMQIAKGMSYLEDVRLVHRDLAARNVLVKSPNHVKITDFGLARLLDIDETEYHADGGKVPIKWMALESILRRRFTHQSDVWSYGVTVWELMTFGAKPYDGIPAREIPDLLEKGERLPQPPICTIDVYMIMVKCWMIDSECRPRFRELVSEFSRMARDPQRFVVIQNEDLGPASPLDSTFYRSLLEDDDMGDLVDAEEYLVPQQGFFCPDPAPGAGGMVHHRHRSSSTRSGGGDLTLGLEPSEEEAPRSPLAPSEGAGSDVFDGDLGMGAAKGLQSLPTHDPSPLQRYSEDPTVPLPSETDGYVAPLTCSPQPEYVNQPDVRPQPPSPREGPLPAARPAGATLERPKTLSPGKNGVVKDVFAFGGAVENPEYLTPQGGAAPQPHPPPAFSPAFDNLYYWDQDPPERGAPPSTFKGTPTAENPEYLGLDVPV

Ephrin type-A receptor 2 = Ephrin type-A receptor 2 (Homo sapiens, UniProt P29317); assay: Inhibition of recombinant human N-terminal His6-tagged EphA2 (N598 to R890 residues) expressed in baculovirus using poly-EY as substrate after 180 mins by luciferase coupled chemiluminescence assay
Ephrin type-A receptor 2, sequence (P29317 whole entry, the tested form may be a part): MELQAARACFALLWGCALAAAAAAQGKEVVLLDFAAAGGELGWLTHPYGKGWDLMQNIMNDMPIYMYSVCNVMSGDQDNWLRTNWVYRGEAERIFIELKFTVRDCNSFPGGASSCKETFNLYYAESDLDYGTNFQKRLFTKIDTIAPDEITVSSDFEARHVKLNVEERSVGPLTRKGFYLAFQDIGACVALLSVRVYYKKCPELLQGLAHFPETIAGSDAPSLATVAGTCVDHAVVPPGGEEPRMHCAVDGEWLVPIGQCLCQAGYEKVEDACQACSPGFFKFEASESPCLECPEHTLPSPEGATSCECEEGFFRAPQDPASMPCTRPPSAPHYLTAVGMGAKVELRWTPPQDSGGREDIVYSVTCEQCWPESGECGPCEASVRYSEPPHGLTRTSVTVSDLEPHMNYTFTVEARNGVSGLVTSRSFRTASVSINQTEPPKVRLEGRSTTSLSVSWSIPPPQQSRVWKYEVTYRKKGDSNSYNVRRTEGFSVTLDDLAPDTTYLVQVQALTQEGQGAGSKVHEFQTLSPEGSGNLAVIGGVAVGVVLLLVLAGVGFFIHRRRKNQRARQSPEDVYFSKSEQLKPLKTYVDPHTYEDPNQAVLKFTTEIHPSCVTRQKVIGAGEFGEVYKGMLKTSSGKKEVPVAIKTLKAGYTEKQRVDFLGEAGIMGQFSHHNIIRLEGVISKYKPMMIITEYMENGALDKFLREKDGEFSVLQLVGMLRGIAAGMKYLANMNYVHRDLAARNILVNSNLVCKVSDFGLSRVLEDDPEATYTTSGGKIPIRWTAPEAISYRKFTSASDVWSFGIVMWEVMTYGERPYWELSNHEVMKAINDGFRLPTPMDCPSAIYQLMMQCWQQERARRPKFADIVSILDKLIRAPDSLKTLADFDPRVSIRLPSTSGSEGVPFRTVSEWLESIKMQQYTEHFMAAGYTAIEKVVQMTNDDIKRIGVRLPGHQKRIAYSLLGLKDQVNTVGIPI

Vascular endothelial growth factor receptor 2, sequence (P35968 whole entry, the tested form may be a part): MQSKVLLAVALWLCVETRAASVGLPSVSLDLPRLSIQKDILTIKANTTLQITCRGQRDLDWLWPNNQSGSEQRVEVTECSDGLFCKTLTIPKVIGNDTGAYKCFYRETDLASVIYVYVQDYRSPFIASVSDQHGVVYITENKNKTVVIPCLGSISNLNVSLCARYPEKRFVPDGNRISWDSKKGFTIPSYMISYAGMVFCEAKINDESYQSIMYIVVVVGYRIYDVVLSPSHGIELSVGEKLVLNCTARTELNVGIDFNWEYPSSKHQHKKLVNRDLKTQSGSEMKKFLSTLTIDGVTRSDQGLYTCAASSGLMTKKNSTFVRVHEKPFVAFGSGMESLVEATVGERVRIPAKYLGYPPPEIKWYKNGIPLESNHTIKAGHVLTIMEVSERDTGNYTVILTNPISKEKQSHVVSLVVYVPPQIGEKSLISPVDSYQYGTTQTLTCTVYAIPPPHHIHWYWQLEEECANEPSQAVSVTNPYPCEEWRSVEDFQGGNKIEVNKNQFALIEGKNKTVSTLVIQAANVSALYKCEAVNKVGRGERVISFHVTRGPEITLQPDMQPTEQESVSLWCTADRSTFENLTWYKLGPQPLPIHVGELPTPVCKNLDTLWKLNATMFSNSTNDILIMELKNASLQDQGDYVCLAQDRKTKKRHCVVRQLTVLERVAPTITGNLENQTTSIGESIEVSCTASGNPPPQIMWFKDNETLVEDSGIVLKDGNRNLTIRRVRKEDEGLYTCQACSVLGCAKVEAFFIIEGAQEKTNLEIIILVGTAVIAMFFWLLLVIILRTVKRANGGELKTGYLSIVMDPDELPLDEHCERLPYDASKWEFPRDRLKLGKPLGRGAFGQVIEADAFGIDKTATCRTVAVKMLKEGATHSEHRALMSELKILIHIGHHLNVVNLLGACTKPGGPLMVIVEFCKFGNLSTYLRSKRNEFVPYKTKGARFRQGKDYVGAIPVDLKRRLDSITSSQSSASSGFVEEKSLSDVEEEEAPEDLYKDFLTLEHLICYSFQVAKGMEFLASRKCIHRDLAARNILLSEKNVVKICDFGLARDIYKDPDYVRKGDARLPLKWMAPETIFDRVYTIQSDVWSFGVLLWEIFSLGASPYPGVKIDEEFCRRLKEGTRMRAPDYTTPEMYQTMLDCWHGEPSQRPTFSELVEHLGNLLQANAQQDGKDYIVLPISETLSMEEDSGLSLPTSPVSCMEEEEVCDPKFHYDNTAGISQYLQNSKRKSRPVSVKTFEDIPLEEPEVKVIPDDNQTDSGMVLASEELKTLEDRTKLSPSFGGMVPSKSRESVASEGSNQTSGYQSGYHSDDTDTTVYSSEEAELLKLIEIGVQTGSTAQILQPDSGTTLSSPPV

Compound | IC50 [1] [µM] | IC50 (Ephrin type-B receptor 4) [µM] | IC50 [2] [µM] | IC50 (Ephrin type-A receptor 2) [µM]
CCOc1cc2c(Nc3ccc(Cl)c(Cl)c3)ncnc2cc1OCC1CNCCO1 (stereo not drawn) | < 0.05 | < 0.05 | < 0.05 | 
COc1cc2c(Nc3ccc(Cl)c(Cl)c3)ncnc2cc1OCC1CN(c2ccncc2)CCO1 (stereo not drawn) | < 0.05 | < 0.05 |  | < 0.05
COc1cc(Nc2ncnc3cc(OCC4CN(C)CCO4)c(OC)cc23)c(OC)cc1Cl (stereo not drawn) | 1 to 20 | 0.05 to 1 |  | 0.05 to 1
COc1cc2c(Nc3ccc(Cl)c(Cl)c3)ncnc2cc1OCC1CN(C(=O)Cc2ccc(Cl)cc2)CCO1 (stereo not drawn) | 0.05 to 1 | 0.05 to 1 |  | 1 to 20
CCC(CC)CN1CCOC(COc2cc3ncnc(Nc4ccc(Cl)c(Cl)c4)c3cc2OC)C1 (stereo not drawn) | 0.05 to 1 | 0.05 to 1 |  | 0.05 to 1
COc1cc2c(Nc3ccc(Cl)c(Cl)c3)ncnc2cc1OCC1CN(S(=O)(=O)Cc2ccccc2)CCO1 (stereo not drawn) | 0.05 to 1 | 0.05 to 1 |  | 0.05 to 1
COc1cc2c(Nc3ccc(Cl)c(Cl)c3)ncnc2cc1OCC1CN(C2CCOCC2)CCO1 (stereo not drawn) | 0.05 to 1 | < 0.05 |  | 0.05 to 1
COc1cc2c(Nc3ccc(Cl)c(Cl)c3)ncnc2cc1OCC1CN(Cc2ccccn2)CCO1 (stereo not drawn) | < 0.05 | 0.05 to 1 |  | 0.05 to 1
COc1cc2c(Nc3ccc(Cl)c(Cl)c3)ncnc2cc1OCC1CN(C(C)C(C)=O)CCO1 (stereo not drawn) | 0.05 to 1 | 0.05 to 1 |  | 0.05 to 1
COc1cc2c(Nc3ccc(Cl)c(Cl)c3)ncnc2cc1OCC1CN(CCC2CCCCC2)CCCO1 (stereo not drawn) | 0.05 to 1 | 0.05 to 1 |  | 0.05 to 1
COc1cc2c(Nc3ccc(Cl)c(Cl)c3)ncnc2cc1OCC1CNCC(C)(C)O1 (stereo not drawn) | < 0.05 | 0.05 to 1 | 0.05 to 1 | 
C=CCCCCCCN1CCOC(COc2cc3ncnc(Nc4ccc(Cl)c(Cl)c4)c3cc2OC)C1 (stereo not drawn) | 0.05 to 1 | 0.05 to 1 |  | 0.05 to 1
CCCCS(=O)(=O)N1CCOC(COc2cc3ncnc(Nc4ccc(Cl)c(Cl)c4)c3cc2OC)C1 (stereo not drawn) | 0.05 to 1 | 0.05 to 1 |  | 0.05 to 1
CCN1CCN(C)CC1COc1cc2ncnc(Nc3ccc(Cl)c(Cl)c3)c2cc1OC (stereo not drawn) | 1 to 20 | 0.05 to 1 |  | 0.05 to 1
CCCCc1ccc(C(=O)N2CCOC(COc3cc4ncnc(Nc5ccc(Cl)c(Cl)c5)c4cc3OC)C2)cc1 (stereo not drawn) | 1 to 20 | 1 to 20 |  | 1 to 20
CN1CCOC(COc2cc3ncnc(Nc4ccc(Cl)c(Cl)c4)c3cc2O)C1 (stereo not drawn) | 0.05 to 1 | 0.05 to 1 |  | 0.05 to 1
COc1cc2c(Nc3ccc(Cl)cc3Cl)ncnc2cc1OCC1CN(C)CCO1 (stereo not drawn) | 0.05 to 1 | 0.05 to 1 |  | 0.05 to 1
COc1cc2c(Nc3ccc(Cl)c(Cl)c3)ncnc2cc1OCC1CN(CCCC#N)CCO1 (stereo not drawn) | < 0.05 | < 0.05 |  | < 0.05
COc1cc2c(Nc3ccc(Cl)c(Cl)c3)ncnc2cc1OCC1CN(C(=O)CC(=O)O)CCO1 (stereo not drawn) | < 0.05 | < 0.05 |  | < 0.05
COc1cc2c(Nc3cccc(Br)c3Cl)ncnc2cc1OCC1CN(C)CCO1 (stereo not drawn) | 0.05 to 1 | < 0.05 |  | 0.05 to 1
CCC1(C)CN(C)CC(COc2cc3ncnc(Nc4ccc(Cl)c(Cl)c4)c3cc2OC)O1 (stereo not drawn) | 0.05 to 1 | 0.05 to 1 |  | 0.05 to 1
CCN1CCN(C(C)=O)CC1COc1cc2ncnc(Nc3ccc(Cl)c(Cl)c3)c2cc1OC (stereo not drawn) | 1 to 20 | < 0.05 |  | 0.05 to 1
COc1cc2c(Nc3ccc(Cl)c(Cl)c3)ncnc2cc1OCC1CN(C(=O)CCc2ccccc2)CCO1 (stereo not drawn) | 0.05 to 1 | 0.05 to 1 |  | 0.05 to 1
COc1cc2c(Nc3ccc(Cl)cc3F)ncnc2cc1OCC1CN(C)CCO1 (stereo not drawn) | < 0.05 | 0.05 to 1 |  | 0.05 to 1
CCCCCN1CCOC(COc2cc3ncnc(Nc4ccc(Cl)c(Cl)c4)c3cc2OC)C1 (stereo not drawn) | 0.05 to 1 | 0.05 to 1 |  | 0.05 to 1
COc1cc2c(Nc3ccc(Cl)c(Cl)c3)ncnc2cc1OCC1CN(C(=O)c2ccc3c(c2)OCO3)CCO1 (stereo not drawn) | 0.05 to 1 | 0.05 to 1 |  | 0.05 to 1
COc1cccc(CC(=O)N2CCOC(COc3cc4ncnc(Nc5ccc(Cl)c(Cl)c5)c4cc3OC)C2)c1 (stereo not drawn) | 0.05 to 1 | 0.05 to 1 |  | 0.05 to 1
CCCCCCN1CCOC(COc2cc3ncnc(Nc4ccc(Cl)c(Cl)c4)c3cc2OC)C1 (stereo not drawn) | 0.05 to 1 | 0.05 to 1 |  | 0.05 to 1
COc1cc2c(Nc3ccc(Cl)c(Cl)c3)ncnc2cc1OCc1csc(CN2CCCC2)n1 | 0.05 to 1 | 0.05 to 1 |  | 0.05 to 1
COc1cc2c(Nc3ccc(Cl)c(Cl)c3)ncnc2cc1OCC1CN(C(=O)c2cccc3ccccc23)CCO1 (stereo not drawn) | 0.05 to 1 | 0.05 to 1 |  | 1 to 20

Next, values leading:

IC50 [1] [µM] | IC50 (Ephrin type-B receptor 4) [µM] | IC50 [2] [µM] | IC50 (Ephrin type-A receptor 2) [µM] | Compound
0.05 to 1 | 0.05 to 1 |  | 0.05 to 1 | COc1cc2c(Nc3ccc(Cl)c(Cl)c3)ncnc2cc1OCC1CN(CCC2CCCCC2)CCO1 (stereo not drawn)
0.05 to 1 | < 0.05 |  | 0.05 to 1 | COc1cc2c(Nc3ccc(Cl)c(Cl)c3)ncnc2cc1OCC1CN(CCC2OCCO2)CCO1 (stereo not drawn)
0.05 to 1 | 0.05 to 1 |  | 0.05 to 1 | COc1cc2c(Nc3ccc(Cl)c(Cl)c3)ncnc2cc1OCC1CN(C(=O)c2cc(F)ccc2F)CCO1 (stereo not drawn)
< 0.05 | < 0.05 |  | 0.05 to 1 | COc1cc2c(Nc3ccc(Cl)c(Cl)c3)ncnc2cc1OCC1CN(/C(=N/C#N)N2CCN(C)CC2)CCO1 (stereo not drawn)
< 0.05 | 0.05 to 1 |  | 0.05 to 1 | COc1cc2c(Nc3ccc(Cl)c(Cl)c3)ncnc2cc1OCC1CN(C2CCC2)CCO1 (stereo not drawn)
0.05 to 1 | 0.05 to 1 |  | 0.05 to 1 | COc1cc2c(Nc3ccc(Br)cc3Br)ncnc2cc1OCC1CN(C)CCO1 (stereo not drawn)
0.05 to 1 | 0.05 to 1 | 0.05 to 1 |  | COc1cc2c(Nc3ccc(Cl)c(Cl)c3)ncnc2cc1OCC1CN(C)CC(C)(C)O1 (stereo not drawn)
0.05 to 1 | 0.05 to 1 |  | 0.05 to 1 | COC(=O)CCC(=O)N1CCOC(COc2cc3ncnc(Nc4ccc(Cl)c(Cl)c4)c3cc2OC)C1 (stereo not drawn)
0.05 to 1 | 1 to 20 |  | 1 to 20 | COc1cc2c(Nc3ccc(Cl)c(Cl)c3)ncnc2cc1OCC1CN(S(=O)(=O)c2ccc(C)cc2)CCO1 (stereo not drawn)
0.05 to 1 | 0.05 to 1 |  | 0.05 to 1 | COc1cc2c(Nc3ccc(Cl)c(Cl)c3)ncnc2cc1OCc1noc(C2CCCN2C)n1 (stereo not drawn)
< 0.05 | 0.05 to 1 |  | 0.05 to 1 | COc1cc2c(Nc3ccc(Br)cc3F)ncnc2cc1OCC1CN(C)CCO1 (stereo not drawn)
< 0.05 | < 0.05 |  | 0.05 to 1 | COc1cc2c(Nc3ccc(Cl)c(Cl)c3)ncnc2cc1OCC1CN(C2CCN(C)CC2)CCO1 (stereo not drawn)
0.05 to 1 | < 0.05 |  | 0.05 to 1 | COc1cc2c(Nc3ccc(Cl)c(Br)c3)ncnc2cc1OCC1CN(C)CCO1 (stereo not drawn)
< 0.05 | < 0.05 |  | < 0.05 | C#CCN1CCOC(COc2cc3ncnc(Nc4ccc(Cl)c(Cl)c4)c3cc2OC)C1 (stereo not drawn)
0.05 to 1 | 0.05 to 1 |  | 0.05 to 1 | COc1cc2c(Nc3ccc(Cl)c(Cl)c3)ncnc2cc1OCC1CN(CC2CCCCC2)CCO1 (stereo not drawn)
0.05 to 1 | < 0.05 |  | 0.05 to 1 | CCCN1CCOC(COc2cc3ncnc(Nc4ccc(Cl)c(Cl)c4)c3cc2OC)C1 (stereo not drawn)
0.05 to 1 | 0.05 to 1 |  | 0.05 to 1 | CCCCC(CC)C(=O)N1CCOC(COc2cc3ncnc(Nc4ccc(Cl)c(Cl)c4)c3cc2OC)C1 (stereo not drawn)
1 to 20 | 0.05 to 1 |  | 0.05 to 1 | CCN1CCN(CC)C(COc2cc3ncnc(Nc4ccc(Cl)c(Cl)c4)c3cc2OC)C1 (stereo not drawn)
0.05 to 1 | 0.05 to 1 |  | 0.05 to 1 | COc1cc2c(Nc3ccc(Cl)c(Cl)c3)ncnc2cc1OCC1CN(Cc2ccc(F)cc2)CCO1 (stereo not drawn)
0.05 to 1 | 0.05 to 1 |  | 0.05 to 1 | COc1cc2c(Nc3ccc(Br)cc3C)ncnc2cc1OCC1CN(C)CCO1 (stereo not drawn)
0.05 to 1 | 0.05 to 1 |  | 0.05 to 1 | COc1cc2c(Nc3cc(Cl)ccc3F)ncnc2cc1OCC1CN(C)CCO1 (stereo not drawn)
